Data from the METLIN SMRT retention time set (Domingo-Almenara et al. 2019).

Test: gradient 5% acetonitrile 3 min, to 50% in 2 min, to 85% in 15 min, held 3 min, 100 µL/min
Details: column: Zorbax Extend-C18 2.1 x 50 mm; eluents: water / acetonitrile, 0.1% formic acid
Outline: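 Standards, all pure, were combined into mixtures of ~100 molecules and run at 100 μL/min on a Zorbax Extend-C18 column (2.1 × 50 mm, 1.8 μm) with water and acetonitrile, each containing 0.1% formic acid. A coupled quadrupole time-of-flight mass spectrometer operated in positive and negative ionization mode. Retention time values come from computationally picked adduct peaks, each inspected manually.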

| Structure (SMILES) | RP-LC retention time [s] |
| --- | --- |
| Cc1ccc(-n2nc3c(=O)n(CCCC(=O)N4CCCC4)nc(C)c3c2C)cc1 | 748 |
| Cc1nc2nc(-c3ccccc3)nn2c(C)c1CC(=O)N1CCCCC1C (stereo unspecified) | 836 |
| Cc1cc(N2CCN(C)CC2)nc2ccc(NC(=S)NCC3(c4ccccc4)CCCC3)cc12 | 636 |
| CCc1noc(NC(C)=O)c1-c1ccc(C)c(S(=O)(=O)Nc2ccc(C)c(C)c2)c1 | 897 |
| O=C(O)c1[nH]nc2c1COc1ccccc1-2 | 673 |
| O=C(O)c1cn(-c2ccccc2F)nn1 | 650 |
| Cc1cccc(C)c1NC(=O)CN1CCCC1 | 633 |
| COc1cc2c(cc1CNC(=O)c1cccs1)OCCCO2 | 780 |
| O=C(CCCc1nc2cccnc2n1Cc1ccccc1)N1CCN(c2ncccn2)CC1 | 563 |
| O=C(CN1C(=O)CCCc2cc(S(=O)(=O)N3CCCCC3)ccc21)NCc1ccccc1 | 847 |
| CCCn1c(=O)c(C)nc2cc(-c3noc(/C=C/c4cccs4)n3)ccc21 | 792 |
| COC(=O)COc1cc(-c2ccc(F)cc2)nc2ccc(NC(=O)Cc3ccccc3)cc12 | 809 |
| Cc1ccc(-n2cc(C(=O)O)nn2)cc1F | 684 |
| COCC(=O)NC1CCC12CCN(C(=O)C1CC1)CC2 (stereo unspecified) | 619 |
| CC1CCN(c2nc(-c3ccc(C(C)(C)C)cc3)nc3ccccc23)CC1 | 1070 |
| COc1ccc(NC(=O)Cn2nc3n(c2=O)CCCC3)cc1Cl | 674 |
| Cn1c(=O)oc2cc(-c3noc(-c4cccc(F)c4)n3)ccc21 | 1020 |
| COc1ccc(S(=O)(=O)Nc2cc3sc(=O)oc3c3ccccc23)cc1 | 894 |
| O=C(Cn1ccn2nc(-c3ccc(F)cc3)c(CO)c2c1=O)Nc1cccc(Br)c1 | 894 |
| CCOc1ccccc1NC(=O)C1CCCN(c2nc3c(s2)c(C)nn3-c2ccc(C)cc2)C1 (stereo unspecified) | 1360 |
| NC(=O)C1CCC(=O)N1C1CCN(C(=O)CCC2CCCC2)CC1 (stereo unspecified) | 566 |
| CC1CN(Cc2nc3c(c(=O)n(C)c(=O)n3C)n2CCCc2ccccc2)CC(C)O1 (stereo unspecified) | 732 |
| COc1cccc(NC(=O)Cn2cnc3nc(N4CCC(C(=O)NC5CC5)CC4)sc3c2=O)c1 | 658 |

| Structure (SMILES) | RP-LC retention time [s] |
| --- | --- |
| CC(C)CN1C(=O)c2cccn2CC1CNC(=O)CC1CCCC1 (stereo unspecified) | 784 |
| O=C(NC1CC1)[C@@H]1C[C@H](Oc2ccccc2)CN1C(=O)C1CC1 | 684 |
| Cc1ccc(OCC(=O)Nc2cnn(C)c(=O)c2N2CCCCC2)cc1 | 1070 |
| CN1CCCn2cc(S(=O)(=O)Nc3ccc(F)cc3)cc2C1=O | 670 |
| O=C(c1ccc2c(c1)OCO2)N1CCCC1c1nc(-c2cccc(C(F)(F)F)c2)no1 (stereo unspecified) | 1080 |
| COc1ccc(-c2nc3cnccn3c2NCCC(=O)Nc2ccc3c(c2)OCCO3)cc1 | 676 |
| Cn1c(=O)c(-c2ccc(C(=O)N3CCOCC3)cc2)nc2ccccc21 | 698 |
| Cc1csc2nc(CNS(=O)(=O)c3cccnc3)cn12 | 544 |
| CCOc1ccc(-c2noc(CS(=O)(=O)c3cc(C)c(C)cc3C)n2)cc1 | 1110 |
| O=C(CSc1nnc(-c2cccnc2)o1)c1ccc(OC(F)F)cc1 | 780 |
| CCC(C)n1c(=O)c2ccccc2n(Cc2nc(-c3ccc(C(F)(F)F)cc3)no2)c1=O (stereo unspecified) | 1290 |
| O=C(NCc1ccc(N2CCOCC2)cc1)C1CCCN(c2cnc3nccnc3c2)C1 (stereo unspecified) | 728 |
| Cc1cc(C)c2c(N3CCCC3)nc(C(=O)Nc3ccc4c(c3)OCO4)nc2n1 | 656 |
| Cc1ccc(NC(=O)C2CCN(S(=O)(=O)c3ccc4[nH]c5c(c4c3)CCCCC5)CC2)nc1 | 897 |
| CN(CC1CCOC1)C(=O)c1cccc(Cl)c1 (stereo unspecified) | 672 |
| O=C(Nc1nc(CC(=O)N2CCN(C(=O)C3CCCO3)CC2)cs1)c1ccsc1 (stereo unspecified) | 606 |
| COCCNC(=O)N1CCCn2nc(-c3ccc(OC)cc3)cc2C1 | 660 |
| CCCC(=O)Nc1ccc(S(=O)(=O)NCC(C)(O)COC)cc1 (stereo unspecified) | 619 |
| CCN1C(=O)COc2ccc(-c3nc(NC(=O)c4cccc(Br)c4)sc3C)cc21 | 1150 |
| Cc1sc2ccn(C)c(=O)c2c1C(=O)N1CCC2(CC1)OCCO2 | 626 |
| Cc1cc(S(=O)(=O)Nc2cccn3c(C4CCC4)nnc23)ccc1F | 822 |
| CCCS(=O)(=O)Nc1cccc(-c2cn3ccccc3n2)c1 | 608 |
| CCCNC(=O)N1CCCCC1c1n[nH]c(C)n1 (stereo unspecified) | 577 |

| Structure (SMILES) | RP-LC retention time [s] |
| --- | --- |
| Cc1ccc(Nc2c(-c3cccc(Br)c3)nc3ccc(Cl)cn23)cc1 | 1130 |
| Cn1cc(S(=O)(=O)N2CCC(C(=O)NC3CCCC3)CC2)cc1C(=O)N1CCCCC1 | 732 |
| CCOc1ccc2c(c1)SC(CC(=O)Nc1ccccc1[N+](=O)[O-])C(=O)N2 (stereo unspecified) | 822 |
| CC1CCN(C(=O)CCC(=O)N2CCCN(c3nc4cccnc4s3)CC2)CC1 | 698 |
| COc1ccccc1C(=O)Nc1cnc(-c2ccc(Cl)cc2)nc1 | 1170 |
| CCOC(=O)N1CCN(C(=O)CSc2nc(=O)[nH]c3c2CCC3)CC1 | 574 |
| NC(=O)C1=C(N)c2ccccc2C1c1ccccc1 (stereo unspecified) | 822 |
| Cc1ccc(-c2nc3nc(C)cc(C)n3c2Nc2cccc(C(F)(F)F)c2)cc1 | 817 |
| O=C(C1CCC1)N1CCC(Oc2cc(N3CCOCC3)ncn2)C1 (stereo unspecified) | 670 |
| CCOc1cc(-c2ccc(F)cc2)nc2ccc(C(=O)N3CCN(c4ccccn4)CC3)cc12 | 624 |
| O=C(N[C@H]1C[C@@H]2C[C@H]1N(C(=O)c1ccc(Cl)s1)C2)c1cccs1 | 850 |
| COc1ccc(-c2nc(Cc3noc(-c4ccccc4OC)n3)c(C)o2)cc1 | 1070 |
| COc1cc(CCC(=O)O)on1 | 658 |
| CCc1nc2cc(N3CCC(C(=O)NCc4ccc(OC)cc4)CC3)cnc2nc1CC | 833 |
| CC1=C(c2ccccc2)S(=O)(=O)N=C1N1CCCN(C(=O)c2cccnc2)CC1 | 664 |
| CCN1CCCC1CNC(=O)c1cc(S(=O)(=O)CC)c(N)cc1OC (stereo unspecified) | 591 |
| Cc1ccc(NC(=O)C2(CCO)CCN(c3ncccn3)C2)cc1 (stereo unspecified) | 630 |
| Cc1c(Cl)cccc1S(=O)(=O)N1CCc2c(c(-c3nnc(-c4ccc(F)cc4)o3)nn2C)C1 | 1090 |
| Cc1ccc2oc(C(=O)N3CCC(CCN4CCCC4)CC3)cc(=O)c2c1 | 603 |
| CCn1c(SC)nnc1-c1nn(C)c2c1CN(C(=O)c1c(F)cccc1F)CC2 | 765 |
| Cc1nnc(-c2coc(S(=O)(=O)N3CCC(N4CCCCC4)CC3)c2)o1 | 615 |
| Cc1ccc(S(=O)(=O)N2CCC(c3nc(C(=O)N4CCOCC4)c(C)o3)CC2)cc1 | 824 |
| COc1ccc(CN2CCC([C@@H]3CNC[C@H]3CO)CC2)c(OC)c1 | 549 |

| Structure (SMILES) | RP-LC retention time [s] |
| --- | --- |
| CCCNC(=O)c1nc(Nc2ccc(CC)cc2)c2ccccc2n1 | 813 |
| Cc1ccn2cc(-c3cccc(S(=O)(=O)N4CCCC4)c3)nc2c1 | 611 |
| COc1cc(OC)cc(C(=O)N2CCCC2c2nc(-c3ccc(OC)c(OC)c3)no2)c1 (stereo unspecified) | 879 |
| COCCN1C(=O)CCc2cc(NC(=O)Cc3ccc(Cl)cc3)ccc21 | 806 |
| O=C(CN1C(=O)C2CCCCN2c2ccc(S(=O)(=O)N3CCCC3)cc21)N1CCCCC1 (stereo unspecified) | 872 |
| CNC(=O)c1ccc(Cn2cnc3cccnc32)cc1 | 572 |
| NC(=O)C1CCN(C(=O)COCc2cc(-c3cccs3)on2)CC1 | 640 |
| Cc1nc2cc(-c3noc(-c4ccc(Cl)cc4)n3)ccc2o1 | 1210 |
| Cc1cc(C)c(C(=O)N2CCC(CC(=O)NCCCN3CCN(C)CC3)CC2)[nH]1 | 566 |
| CC(C)Cn1c(=O)c(C(=O)NCc2ccc(N3CCCCC3)cc2)nc2cccnc21 | 666 |
| CCc1nc2cc(-c3noc(-c4ccc(C)s4)n3)ccc2o1 | 1200 |
| CCC(CC)C(=O)Nc1nc(-c2ccc(Cl)cc2)cs1 | 1150 |
| CCc1ccc(NC(=O)C2CCN(S(=O)(=O)c3c(C)[nH]c(C)c3C(=O)N3CCCC3)CC2)cc1 | 729 |
| Cc1cc(C)c(NC(=O)Cn2cnc3nc(N4CCCC(C(=O)NC5CC5)C4)sc3c2=O)c(C)c1 (stereo unspecified) | 723 |
| COc1cc(-c2nnc(C)o2)ccc1C | 828 |
| CCCN1C(=O)COc2ccc(-c3noc(-c4cccc(NC(C)=O)c4)n3)cc21 | 925 |
| CCOC(=O)c1cc2n(n1)CC(C)(C(=O)NC1CCCC1)N(c1ccccc1F)C2=O (stereo unspecified) | 876 |
| CCCOc1ccc(CN2CCN(C(=O)c3ccoc3)CC2)cn1 | 679 |
| CC(C)CN1Cc2ccccc2-n2ccnc2C12CCN(C(=O)c1ccn[nH]1)CC2 | 615 |
| COc1cccc(Cn2c(C)c(CNCc3cccnc3)c(C(=O)O)c2C)c1 | 625 |
| Cn1cnc(S(=O)(=O)N2CCC(c3noc(-c4ccccn4)n3)C2)c1 (stereo unspecified) | 622 |
| CNC(=O)N1CCC(N2C(=O)C3(CCCCC3)C2c2ccccc2)CC1 (stereo unspecified) | 783 |
